The experiment addresses PAPD5 enzyme (Homo sapiens, UniProt Q8NDF8). Briefly: PAPD5 assay (AMP incorporation onto 3'-terminus of RNA substrate, fluorescence quench). It is filed as biochemical. As to conditions: PAPD5 protein 0.3 nM, ATP 50 μM, 30 minutes preincubation, room temperature; read-out: Potency PAPD5 IC50. Here is the method:
The purpose of the PAPD5 assay is to determine compound potency against PAPD5 enzyme through the measurement of IC50. Compound inhibition is measured as a function of AMP incorporation onto the 3′-terminus of an RNA substrate in the presence of active PAPD5, ATP, and inhibitor. The PAPD5 assay was done in a black, non-binding, 384 well plate (Corning #3575). All steps were performed at room temperature. For a typical assay, a 40 ul aliquot of assay buffer (50 mM HEPES pH 7.3, 20 mM KCl, 10 mM MgCl2, 10 mMM DTT, 0.01% Triton X-100, 40 U/ml RNAsin (Promega)) containing PAPD5 protein (final 10 concentration: 0.3 nM) and ATP (final concentration 50 μM) was added to each well. Next, 1 ul of compound in 100% DMSO is transferred from a compound dilution plate in which the compound is serially diluted. The plate was placed on a plate shaker for 30 seconds to produce mixing, then incubated for 30 minutes. Next, 10 ul of a 5× mix of RNA substrate (5′-fluorescein-AUAGAG-3′ (IDT)) and a DNA oligonucleotide that is complementary to the AMP modified RNA product (5′-TCTCTATT-3′-TAMRA, wherein the first two nucleotides are locked nucleic acids (IDT)) was added (final concentrations: 5 nM and 20 nM, respectively). The plate was placed on a plate shaker for 30 seconds to produce mixing then immediately placed in a Biotek Cytation 5 plate reader, and the time-dependent decrease in fluorescein fluorescence resulting from annealing of the TAMRA labeled quenching probe was recorded, using the kinetics mode of the reader (typical run time is 90 minutes). Reaction rates were obtained using linear fits to the early portion of progress curves. IC50 values were calculated using a four-parameter fit with 100% enzyme activity determined from the DMSO control and 0% activity from control samples lacking UTP.
“+” represents an IC50 value that is greater than 50 PM; “++” represents an IC50 value that is greater than 10 μM and equal to or less than 50 μM; “+++” represents an IC50 value that is greater than 1 μM and equal to or less than 10 μM; and “++++” represents an IC50 value that is equal to or less than 1 μM.

Usually IC50 stands for the concentration that gives 50% inhibition.

Chain of PAPD5 enzyme (Q8NDF8 whole entry): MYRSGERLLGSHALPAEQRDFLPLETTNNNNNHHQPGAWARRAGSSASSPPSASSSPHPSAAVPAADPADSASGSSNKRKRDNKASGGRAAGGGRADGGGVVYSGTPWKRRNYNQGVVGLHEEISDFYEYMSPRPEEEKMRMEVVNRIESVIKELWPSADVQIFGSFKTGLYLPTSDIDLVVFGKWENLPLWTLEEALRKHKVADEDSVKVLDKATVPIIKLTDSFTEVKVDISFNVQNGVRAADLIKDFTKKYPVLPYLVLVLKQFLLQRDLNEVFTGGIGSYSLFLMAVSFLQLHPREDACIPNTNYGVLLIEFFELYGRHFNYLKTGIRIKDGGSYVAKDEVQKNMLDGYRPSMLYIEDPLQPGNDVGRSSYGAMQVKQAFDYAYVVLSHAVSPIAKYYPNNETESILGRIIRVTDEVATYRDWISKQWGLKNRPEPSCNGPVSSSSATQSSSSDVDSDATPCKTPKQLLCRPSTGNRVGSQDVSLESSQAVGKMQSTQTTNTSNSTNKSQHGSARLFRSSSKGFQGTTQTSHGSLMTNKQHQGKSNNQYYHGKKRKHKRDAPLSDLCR

In the case of `Cc1cc(N2CCC2)ncc1-n1cc(C(=O)O)c(=O)c2cc(Cl)c(N3Cc4cccnc4C3)cc21` [Example 189, 1-(6-(azetidin-1-yl)-4-methylpyridin-3-yl)-6-chloro-7-(5,7-dihydro-6H-pyrrolo[3,4-b]pyridin-6-yl)-4-oxo-1,4-dihydroquinoline-3-carboxylic acid], the IC50 was at most 1000 nM. As to `CC(C)(C)OC(=O)N1CCC(n2cc(C(=O)O)c(=O)c3cc(Cl)c(N4Cc5cccnc5C4)nc32)CC1` [Example 73, 1-(1-(tert-butoxycarbonyl)piperidin-4-yl)-6-chloro-7-(5,7-dihydro-6H-pyrrolo[3,4-b]pyridin-6-yl)-4-oxo-1,4-dihydro-1,8-naphthyridine-3-carboxylic acid], the IC50 is at most 1000 nM. Turning to `Cc1cc(N(C)C)ncc1-n1cc(C(=O)O)c(=O)c2cc(F)c(N3Cc4cccnc4C3)cc21` [Example 86, 7-(5,7-dihydro-6H-pyrrolo[3,4-b]pyridin-6-yl)-1-(6-(dimethylamino)-4-methylpyridin-3-yl)-6-fluoro-4-oxo-1,4-dihydroquinoline-3-carboxylic acid], the half-maximal inhibitory concentration (IC50) was at most 1000 nM. The result for `Cc1cc(N)ncc1-n1cc(C(=O)O)c(=O)c2cc(Cl)c(N3Cc4ccccc4C3)nc21` [Example 157, 1-(6-amino-4-methylpyridin-3-yl)-6-chloro-7-(isoindolin-2-yl)-4-oxo-1,4-dihydro-1,8-naphthyridine-3-carboxylic acid] reads at most 1000 nM. Regarding `O=C(O)c1cn(-c2ccc(O)cc2F)c2cc(-n3ncc4cccc(Br)c43)c(F)cc2c1=O` [Example 9, 7-(7-bromo-1H-indazol-1-yl)-6-fluoro-1-(2-fluoro-4-hydroxyphenyl)-4-oxo-1,4-dihydroquinoline-3-carboxylic acid], the IC50 was at most 1000 nM. The result for `Cc1cc(N)ncc1-n1cc(C(=O)O)c(=O)c2cc(Cl)c(N3CCc4ccccc4C3)nc21` [Example 176, 1-(6-amino-4-methylpyridin-3-yl)-6-chloro-7-(3,4-dihydroisoquinolin-2(1H)-yl)-4-oxo-1,4-dihydro-1,8-naphthyridine-3-carboxylic acid] reads at most 1000 nM; that for `Cc1cc(NC(=O)OC(C)(C)C)ncc1-n1cc(C(=O)O)c(=O)c2cc(Cl)c(N3CCc4cnccc4C3)nc21` [Example 196, 1-(6-((tert-butoxycarbonyl)amino)-4-methylpyridin-3-yl)-6-chloro-7-(3,4-dihydro-2,6-naphthyridin-2(1H)-yl)-4-oxo-1,4-dihydro-1,8-naphthyridine-3-carboxylic acid], at most 1000 nM; that for `Cc1nc(NC(=O)OC(C)(C)C)ccc1-n1cc(C(=O)O)c(=O)c2cc(Cl)c(N3Cc4cccnc4C3)cc21` [Example 46, 1-(6-((tert-butoxycarbonyl)amino)-2-methylpyridin-3-yl)-6-chloro-7-(5,7-dihydro-6H-pyrrolo[3,4-b]pyridin-6-yl)-4-oxo-1,4-dihydroquinoline-3-carboxylic acid], at most 1000 nM. `Nc1ncc(-n2cc(C(=O)O)c(=O)c3cc(Cl)c(N4Cc5cccnc5C4)cc32)cc1F` [Example 23, 1-(6-amino-5-fluoropyridin-3-yl)-6-chloro-7-(5,7-dihydro-6H-pyrrolo-[3,4-b]pyridin-6-yl)-4-oxo-1,4-dihydroquinoline-3-carboxylic acid]: the IC50 was at most 1000 nM. As for `O=C(O)c1cn(C2CCOCC2)c2nc(N3Cc4cccnc4C3)c(Cl)cc2c1=O` [Example 101, 6-chloro-7-(5,7-dihydro-6H-pyrrolo[3,4-b]pyridin-6-yl)-4-oxo-1-(tetrahydro-2H-pyran-4-yl)-1,4-dihydro-1,8-naphthyridine-3-carboxylic acid], the figure is at most 1000 nM; as for `Cc1cc(N)ncc1-n1cc(C(=O)O)c(=O)c2ccc(N3Cc4cccnc4C3)cc21` [Example 140, 1-(6-amino-4-methylpyridin-3-yl)-7-(5,7-dihydro-6H-pyrrolo[3,4-b]pyridin-6-yl)-4-oxo-1,4-dihydroquinoline-3-carboxylic acid], at most 1000 nM; as for `Cc1cc(N)ncc1-n1cc(C(=O)O)c(=O)c2cc(Cl)c(N3CCc4cnccc4C3)nc21` [Example 197, 1-(6-amino-4-methylpyridin-3-yl)-6-chloro-7-(3,4-dihydro-2,6-naphthyridin-2(1H)-yl)-4-oxo-1,4-dihydro-1,8-naphthyridine-3-carboxylic acid], at most 1000 nM. Regarding `Cc1cc(NC(=O)OC(C)(C)C)ncc1-n1cc(C(=O)O)c(=O)c2cc(F)c(N3CCc4ccccc4C3)cc21` [Example 184, 1-(6-((tert-butoxycarbonyl)amino)-4-methylpyridin-3-yl)-7-(3,4-dihydroisoquinolin-2(1H)-yl)-6-fluoro-4-oxo-1,4-dihydroquinoline-3-carboxylic acid], the half-maximal inhibitory concentration (IC50) is at most 1000 nM. As for `COc1ccc2c(c1)CN(c1cc3c(cc1F)c(=O)c(C(=O)O)cn3-c1ccc(O)cc1F)C2` [Example 14, 6-fluoro-1-(2-fluoro-4-hydroxyphenyl)-7-(5-methoxyisoindolin-2-yl)-4-oxo-1,4-dihydroquinoline-3-carboxylic acid], the figure is at most 1000 nM; as for `CN(C)C1CN(c2ccc(-n3cc(C(=O)O)c(=O)c4cc(C#N)c(N5Cc6cccnc6C5)cc43)cn2)C1` [Example 36, 6-cyano-7-(5,7-dihydro-6H-pyrrolo[3,4-b]pyridin-6-yl)-1-(6-(3-(dimethylamino)azetidin-1-yl)pyridin-3-yl)-4-oxo-1,4-dihydroquinoline-3-carboxylic acid], at most 1000 nM; as for `O=C(O)c1cn(-c2ccc(O)c(F)c2)c2cc(N3Cc4cccnc4C3)c(Cl)cc2c1=O` [Example 3, 6-chloro-1-(3-fluoro-4-hydroxyphenyl)-4-oxo-7-{5H,6H,7H-pyrrolo[3,4-b]pyridin-6-yl}-1,4-dihydroquinoline-3-carboxylic acid], at most 1000 nM. As for `COc1cc2c(=O)c(C(=O)O)cn(-c3cnc(N)cc3C)c2cc1N1Cc2cccnc2C1` [Example 139, 1-(6-amino-4-methylpyridin-3-yl)-7-(5,7-dihydro-6H-pyrrolo[3,4-b]pyridin-6-yl)-6-methoxy-4-oxo-1,4-dihydroquinoline-3-carboxylic acid], the figure is at most 1000 nM; as for `O=C(O)c1cn(Cc2ccccc2Cl)c2nc(N3Cc4cccnc4C3)c(Cl)cc2c1=O` [Example 69, 6-chloro-1-(2-chlorobenzyl)-7-(5,7-dihydro-6H-pyrrolo[3,4-b]pyridin-6-yl)-4-oxo-1,4-dihydro-1,8-naphthyridine-3-carboxylic acid], at most 1000 nM. Consider `N#Cc1cc2c(=O)c(C(=O)O)cn(-c3ccc(N4CCC4)nc3)c2cc1N1Cc2cccnc2C1` [Example 49, 1-(6-(azetidin-1-yl)pyridin-3-yl)-6-cyano-7-(5,7-dihydro-6H-pyrrolo-[3,4-b]pyridin-6-yl)-4-oxo-1,4-dihydroquinoline-3-carboxylic acid], for which the IC50 was at most 1000 nM. Take `CC(c1ccccc1)n1cc(C(=O)O)c(=O)c2cc(Cl)c(N3Cc4cccnc4C3)nc21` (stereo not drawn) [Example 43, 6-chloro-7-(5,7-dihydro-6H-pyrrolo[3,4-b]pyridin-6-yl)-4-oxo-1-(1-phenylethyl)-1,4-dihydro-1,8-naphthyridine-3-carboxylic acid]: the IC50 is at most 1000 nM. `N#Cc1cc2c(=O)c(C(=O)O)cn(CC3CCCCC3)c2nc1N1Cc2cccnc2C1` [Example 63, 6-cyano-1-(cyclohexylmethyl)-7-(5,7-dihydro-6H-pyrrolo[3,4-b]pyridin-6-yl)-4-oxo-1,4-dihydro-1,8-naphthyridine-3-carboxylic acid]: the IC50 is at most 1000 nM. The result for `O=C(O)c1cn(-c2ccc(O)cc2F)c2cc(N3Cc4cccnc4C3)c(F)cc2c1=O` [Example 29, 7-(5,7-dihydro-6H-pyrrolo[3,4-b]pyridin-6-yl)-6-fluoro-1-(2-fluoro-4-hydroxyphenyl)-4-oxo-1,4-dihydroquinoline-3-carboxylic acid] reads at most 1000 nM; that for `CN1CCC(Cn2cc(C(=O)O)c(=O)c3cc(Cl)c(N4Cc5cccnc5C4)cc32)CC1` [Example 120, 6-chloro-7-(5,7-dihydro-6H-pyrrolo[3,4-b]pyridin-6-yl)-1-((1-methylpiperidin-4-yl)methyl)-4-oxo-1,4-dihydroquinoline-3-carboxylic acid], at most 1000 nM; that for `CS(=O)(=O)Nc1ccc(-n2cc(C(=O)O)c(=O)c3cc(C#N)c(N4Cc5cccnc5C4)cc32)c(F)c1` [Example 57, 6-cyano-7-(5,7-dihydro-6H-pyrrolo[3,4-b]pyridin-6-yl)-1-(2-fluoro-4-(methylsulfonamido)phenyl)-4-oxo-1,4-dihydroquinoline-3-carboxylic acid], at most 1000 nM.
